Test results as given in patent US5294617A, “Angiotensin II receptor blocking 2,3,6 substituted quinazolinones” (American Cyanamid Company, priority 1993, dated 1994).

Target: T1, Angiotensin II Receptor (Bos taurus, UniProt P25104)
T1 construct: The brownish tissue forming the adrenal cortex is scraped off and finely minced with scissors before homogenization; tissue local slaughter house (Maxwell--Cohen); host or cells: beef adrenal cortex, microsomal membranes (100,000×g pellet)
T1 sequence (P25104 1-359): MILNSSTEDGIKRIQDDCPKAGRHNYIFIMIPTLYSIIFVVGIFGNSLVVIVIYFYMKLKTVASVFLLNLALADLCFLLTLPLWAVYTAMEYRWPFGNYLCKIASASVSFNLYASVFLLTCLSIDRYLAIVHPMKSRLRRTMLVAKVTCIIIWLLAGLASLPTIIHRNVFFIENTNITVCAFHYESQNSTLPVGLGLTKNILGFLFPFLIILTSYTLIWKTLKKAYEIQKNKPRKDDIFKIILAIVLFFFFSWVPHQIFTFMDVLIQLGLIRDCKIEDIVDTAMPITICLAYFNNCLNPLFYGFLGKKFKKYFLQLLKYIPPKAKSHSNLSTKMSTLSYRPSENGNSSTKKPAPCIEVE
Experiment: Receptor Binding Assay: binding of [125I](Sar1,Ile8)AngII to beef adrenal cortex membranes
Conditions: radioligand, beef adrenal membranes; non-specific with 1.0 uM unlabeled (Sar1,Ile8)AngII
Excerpt: [^125 I](Sar^1,Ile^8)AngII, S.A. 2200 Ci/mmole, is purchased from Dupont (NEN®, Boston, Mass.). All unlabeled AngII analogs, Dimethylsulfoxide (DMSO), nucleotides, bovine serum albumin (BSA) are purchased from Sigma Chemical Co., St. Louis, Mo. U.S.A.
Approximately sixteen (16) to twenty (20) beef adrenal glands are processed as follows: fresh adrenal glands received on crushed ice are cleaned of fatty tissues and the tough membranes encapsulating the glands are removed and discarded. The brownish tissue forming the adrenal cortex is scraped off and finely minced with scissors before homogenization. Care is taken to avoid contamination with medullary tissue during dissection. The scraped cortices are suspended in twenty volumes of an ice-cold buffer medium consisting of 10 mM Tris.HCl (pH 7.4 at 22° C.) and containing 1.0 mM EDTA and 0.2M sucrose. Unless otherwise indicated, all subsequent operations are done at 4° C. […] The homogenate is centrifuged first at low speed (3,000×g) for 10 min. […] This P2 pellet is discarded and the liquid phase is carefully decanted off in clean centrifuge tubes and recentrifuged at high speed (100,000×g) for 60 min. The translucent final pellet is harvested and combined in a small volume (20-50.0 ml) of 50.0 mM Tris.HCl buffer, pH 7.2. […] The pelleted membrane is reconstituted in 50.0 mM Tris.HCl buffer containing 0.1 mM of phenylmethylsulfonyl fluoride (PMSF) to give approximately a protein concentration of 2.5 mg per ml of tissue suspension. The membrane preparation is finally aliquoted in 1.0 ml volumes and stored at -70° C. until use in the binding assays.
In competition studies, experimental compounds are diluted in dimethylsulfoxide (DMSO) and added in 20 ul to wells before the introduction of tissue membranes. […] Assays are performed in triplicate. The wells are left undisturbed for 60 min. at room temperature. […] The filters are removed from the filter grid and counted in a Parkard® Cobra Gamma Counter for 1 min. […] The binding data are analyzed by the non-linear interactive "LUNDON-1" program (LUNDON SOFTWARE Inc., Cleveland, Ohio U.S.A.).

Specific binding: greater than 90%
Substance: [^125 I](Sar^1,Ile^8) AngII [reference compound]
